Where “and” joins values, the source holds several entries; their conditions need not be identical. Equal entries are not always repeated. Entries after “also recorded” stand apart in the source; their conditions may differ.
Tests used:
[1] = molecular target: T1, human recombinant COX-2 (Homo sapiens, UniProt P35354); assay: In vitro COX-2 colorimetric enzyme assay (Cayman kit, TMPD at 590 nm); format: biochemical; conditions: for Selectivity (ratio of IC50 for COX-1 to COX-2): IC50 COX-1 divided by IC50 COX-2; for IC50: human recombinant COX-2; for COX-2 selectivity, in words: selectivity ratio compared with indomethacin / other derivatives; for COX-2 inhibition, in words: compared with indomethacin / other derivatives
T1 construct: purchased Cayman Chemicals, Ann Arbor, MI, USA
T1 sequence (P35354 18-604): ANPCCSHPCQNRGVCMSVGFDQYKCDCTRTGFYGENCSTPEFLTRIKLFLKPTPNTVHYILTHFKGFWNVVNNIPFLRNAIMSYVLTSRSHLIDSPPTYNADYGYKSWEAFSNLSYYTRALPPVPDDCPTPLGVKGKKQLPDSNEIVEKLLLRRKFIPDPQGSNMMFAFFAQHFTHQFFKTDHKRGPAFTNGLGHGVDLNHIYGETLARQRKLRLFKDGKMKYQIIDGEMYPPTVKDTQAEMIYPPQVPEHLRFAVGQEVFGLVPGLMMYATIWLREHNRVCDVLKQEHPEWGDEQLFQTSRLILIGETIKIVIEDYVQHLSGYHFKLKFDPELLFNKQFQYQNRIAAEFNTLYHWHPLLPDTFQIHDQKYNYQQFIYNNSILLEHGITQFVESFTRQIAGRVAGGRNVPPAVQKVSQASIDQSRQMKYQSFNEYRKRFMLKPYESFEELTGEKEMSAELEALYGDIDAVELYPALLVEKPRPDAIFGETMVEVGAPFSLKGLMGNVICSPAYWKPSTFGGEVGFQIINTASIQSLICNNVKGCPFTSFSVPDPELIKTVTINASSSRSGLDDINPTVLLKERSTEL
Procedure: (§1) The assay procedure was followed as per the manufacturer’s protocol with slight modifications. The screening kits consolidate ovine COX-1 as well as human recombinant COX-2 compounds to screen isozyme-specific inhibitors. The test investigates the peroxidase activity by projecting the presence of oxidized TMPD (N, N, N′, N′- tetramethyl-p-phenylenediamine) at 590 nm. The COX-2 selectivity was measured as a ratio of IC50 for COX-1 divided by COX-2 [15].

[2] = molecular target: T2, ovine COX-1 (Ovis aries, UniProt P05979); assay: In vitro COX-1 colorimetric enzyme assay (Cayman kit, TMPD at 590 nm); format: biochemical
T2 construct: purchased Cayman Chemicals, Ann Arbor, MI, USA
T2 sequence (P05979 25-600): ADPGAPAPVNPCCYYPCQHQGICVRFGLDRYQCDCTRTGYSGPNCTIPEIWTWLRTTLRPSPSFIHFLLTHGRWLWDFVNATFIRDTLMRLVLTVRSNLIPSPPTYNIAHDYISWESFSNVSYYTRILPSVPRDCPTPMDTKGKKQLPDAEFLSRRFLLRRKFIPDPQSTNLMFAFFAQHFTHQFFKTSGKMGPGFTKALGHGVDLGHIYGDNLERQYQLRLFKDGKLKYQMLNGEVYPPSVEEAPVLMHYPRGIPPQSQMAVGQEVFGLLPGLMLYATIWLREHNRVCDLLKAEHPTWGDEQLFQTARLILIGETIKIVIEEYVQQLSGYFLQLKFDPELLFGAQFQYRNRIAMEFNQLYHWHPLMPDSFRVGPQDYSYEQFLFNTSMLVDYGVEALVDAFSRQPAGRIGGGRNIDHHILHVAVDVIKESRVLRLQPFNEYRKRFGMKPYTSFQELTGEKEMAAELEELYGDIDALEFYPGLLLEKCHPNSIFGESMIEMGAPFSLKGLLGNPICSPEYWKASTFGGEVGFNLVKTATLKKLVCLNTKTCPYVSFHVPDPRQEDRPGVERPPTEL
Procedure: as §1

[3] = system: carrageenan-induced paw oedema; assay: Carrageenan-induced rat paw oedema; format: in vivo, Wistar rats; conditions: 2.57 mg/kg oral, 1 h before carrageenan; paw volume after 5 h
Procedure: All the procedures performed followed the Committee for Control and Supervision of Experiments on Animals (CPCSEA), the Ministry of Social Justice and Empowerment, the Government of India. The in vivo study was performed using Wistar rats (250-300 gm body weight) obtained from the Torrent Research Center, […]. Animals were divided into five groups containing six rats per group and housed under controlled conditions. The temperature and relative humidity of the animal house were kept at 23 ± 2 °C and 55 ± 5%, respectively. Animals were kept under a photo schedule of 12 h light and 12 h dark cycle and given access to food and purified water ad libitum. […] A freshly prepared carrageenan solution (1%w/v, 0.1 mL) was injected into the plantar side of each rat's right hind paw. […] The paw volume was measured using a plethysmometer using the mercury displacement method after 5 h of carrageenan injection.

[4] = system: gastric mucosa; assay: Effect on the gastric mucosa (ulcerogenic effect); format: in vivo, Wistar rats; conditions: 2.57 mg/kg oral, six hours after administration, rats
Procedure: GI side effects were assessed six hours after an oral administration in each group. Animals were euthanized, and stomachs were expelled, opened along the more prominent bend and washed with saline to remove gastric contents. Each stomach was analysed by another researcher, blinded to the treatment groups. The stomach was visually examined for the presence of any lesions, hyperaemia (red tinge) or haemorrhagic spots for evaluation of the presence of ulceration.

Row | SMILES | Selectivity (ratio of IC50 for COX-1 to COX-2) [1] | IC50 [1] | IC50 [2] [µM] | COX-2 selectivity, in words [1] | Anti-inflammatory activity (inhibition of paw oedema), in words [3] | COX-2 inhibition, in words [1] | Ulcerogenic effect (visual examination of stomach), in words [4]
1 | COc1ccc2c(c1)c(CC(=O)Nc1ccccc1)c(C)n2C(=O)c1ccc(Cl)cc1 [Compound 3a, 2-(1(4-chlorobenzoyl),5-methoxy-2-methyl-1H-indol-3-yl)-N-phenylacetamide] | 2.04 | 2.97 ± 0.11 µM | 6.04 ± 0.14 | – | – | – | –
2 | COc1ccc2c(c1)c(CC(=O)Nc1ccccc1Cl)c(C)n2C(=O)c1ccc(Cl)cc1 [Compound 3b, 2-(1-(4-chlorobenzoyl),5-methoxy-2-methyl-1H-indol-3-yl)-N-(2-chlorophenyl)acetamide] | 1.41 | 3.28 ± 0.16 µM | 4.61 ± 0.31 | – | – | – | –
3 | COc1ccc2c(c1)c(CC(=O)Nc1ccc(F)c(Cl)c1)c(C)n2C(=O)c1ccc(Cl)cc1 [Compound 3c, N-(3-chloro-4-fluorophenyl)-2-(1-(4-chlorobenzoyl)-5-methoxy-2-methyl-1H-indol-3-yl)acetamide] | 0.76 | 1.39 ± 0.32 µM | 1.06 ± 0.1 | less than indomethacin | comparable anti-inflammatory activity with the standard | – | –
4 | COc1ccc2c(c1)c(CC(=O)Nc1ccc(F)cc1)c(C)n2C(=O)c1ccc(Cl)cc1 [Compound 3d, 2-(1-(4-chlorobenzoyl)-5-methoxy-2-methyl-1H-indol-3-yl)-N-(4-fluorophenyl)acetamide] | – | – | 5 ± 0.47 | – | – | – | –
5 | COc1ccc2c(c1)c(CC(=O)Nc1ccc([N+](=O)[O-])cc1)c(C)n2C(=O)c1ccc(Cl)cc1 [Compound 3e, 2-(1-(4-chlorobenzoyl)-5-methoxy-2-methyl-1H-indol-3-yl)-N-(4-nitrophenyl)acetamide] | 3.32 | 0.344 µM and 0.34 µM | 1.15 ± 0.3 | highest selectivity ratio; also recorded: excellent selectivity ratio as compared with the standard | comparable anti-inflammatory activity with the standard | comparable COX-2 inhibition potential to indomethacin; also recorded: particularly significant activity against the COX-2 enzyme | devoid of GI side effects such as ulceration
6 | COc1ccc2c(c1)c(CC(=O)Nc1c(Cl)cccc1Cl)c(C)n2C(=O)c1ccc(Cl)cc1 [Compound 3g, 2-(1-(4-chlorobenzoyl)-5-methoxy-2-methyl-1H-indol-3-yl)-N-(2,6-dichlorophenyl)acetamide] | 1.42 | 2.91 ± 0.38 µM | 4.14 ± 0.25 | – | – | – | –
7 | COc1ccc2c(c1)c(CC(=O)NCc1ccccc1)c(C)n2C(=O)c1ccc(Cl)cc1 [Compound 3h, N-benzyl-2-(1-(4-chlorobenzoyl)-5-methoxy-2-methyl-1H-indol-3-yl)acetamide] | 1.06 | 4.73 ± 0.15 µM | 4.99 ± 0.11 | – | – | low inhibitory action against COX-2 | –
8 | COc1ccc2c(c1)c(CC(=O)Nc1cccc(C)c1)c(C)n2C(=O)c1ccc(Cl)cc1 [Compound 3i, 2-(1-(4-chlorobenzoyl)-5-methoxy-2-methyl-1H-indol-3-yl)-N-m-tolylacetamide] | 1.12 | 4.22 ± 0.23 µM | 4.71 ± 0.22 | – | – | low inhibitory action against COX-2 | –
9 | COc1ccc2c(c1)c(CC(=O)O)c(C)n2C(=O)c1ccc(Cl)cc1 [Indomethacin, 2-(1-(4-chlorobenzoyl)-5-methoxy-2-methyl-1-H-indol-3-yl)acetic acid] | – | – | – | – | significant inhibition of oedema formation | – | small lesions and red colouration; also recorded: small lesions and ulcers

From paper PMC8876616, “Drug Design, Synthesis and Biological Evaluation of Heterocyclic Molecules as Anti-Inflammatory Agents” (Molecules, 2022)
